The results in this text go back to patent publication US20230114207A1, “THE COMBINATION OF CYCLIN DEPENDENT KINASE 7 INHIBITOR AND IMMUNOTHERAPY FOR TREATMENT OF CANCER” (Dana-Farber Cancer Institute, Inc., priority 2019, published 2023).

Molecules are shown by their SMILES.

In this test the test system is INSM1, ASCL1, NFIB and MYC in DMS79 and GLC16. As to the kind of experiment: RT-qPCR of super enhancer (SE)-associated genes. The settings on record: 24 hr. Type of test: cell-based, human. The procedure: Cell pellets were collected and then subjected to total RNA extraction using RNeasy Plus Mini Kit (QIAGEN, Cat #74136) according to the manufacturer's instructions, or using TRIzol:Chloroform phase-separation by centrifugation followed by RNA precipitation using isopropanol. The extracted RNA was reversely transcribed into cDNA using the High-Capacity RNA-to-cDNA™ Kit (Thermo Fisher Scientific, Cat #4387406) according to the manufacturer's instructions. The obtained cDNA samples were diluted and used for RT-qPCR. PowerUp™ SYBR™ Green Master Mix (Thermo Fisher Scientific, Cat #A25742) or TaqMan Gene Expression Master Mix (Life Technologies, Cat #4369514). Gene specific primers with sequences listed in Table 3 were used for PCR amplification and detection on the StepOnePlus™ Real-Time PCR System (Thermo Fisher Scientific). RT-qPCR data were normalized to Actb (mouse cells) or GUSB (human cells) and presented as fold changes of gene expression in the test sample compared to the control.
(In general: Quantitative PCR measures a nucleic acid by following its amplification.)

Regarding `CN(C)C/C=C/C(=O)Nc1ccc(C(=O)Nc2cccc(Nc3ncc(Cl)c(-c4c[nH]c5ccccc45)n3)c2)cc1` [THZ1, reference compound], the “expression of super enhancer (SE)-associated genes including INSM1, ASCL1, NFIB and MYC” value was “significant reduction”.
